From patent publication EP0561489A2, “Deodorant compositions containing materials for inhibiting bacterial adherence, method of use thereof, and method for determining materials that inhibit bacterial adherence” (THE MENNEN COMPANY, priority 1992, dated 1993)

Legend:
[1] = tested on: adherence of aerobic diphtheroids to undifferentiated HE cells; assay: Inhibition of bacterial adherence to undifferentiated human epithelial cells; type: cell-based; conditions: 17 mg/ml final concentration
Protocol: Skin microorganisms were isolated from the axillae of ten healthy human volunteers (male and female). Corynebacterium diphtheriae, Corynebacterium group J-K, and Escherichia coli 1677 were also obtained. The latter bacteria were included as controls for the adherence experiments. Microorganisms were maintained either by subculture on blood agar plates or trypticase soy agar base with 5% defibrinated sheep's blood. Stock cultures were frozen at -20°C in semi-solid trypticase soy agar for aerobes and chopped meat carbohydrate broth for anaerobes. For in vitro adherence assays the lipophilic corynebacteria were serially subcultured three times for periods of 24 hrs. in tryptose broth with 0.5% Tween-80.
Isolation of microorganisms from the axillae was performed by addition of 1 ml of a 0.1% Triton X-100 solution onto a sterile glass cylinder placed firmly on the skin in the axilla (total area 3.8cm²). […]
Human epithelial (HE) cells (primary culture from normal human epidermal keratinocytes) were used to assess the adherence of the axillary microorganisms. […] Differentiation of HE cells was induced by addition of calcium chloride (CaCl₂) to a concentration of 2 mM/L. Differentiation was assessed by mound formation (3 to 5 layers of cells) during tissue culture and by a modified Ayoub-Shklar's stain for differentiated epithelial cells. […]

[2] = tested on: adherence of aerobic diphtheroids to differentiated HE cells; assay: Inhibition of bacterial adherence to differentiated human epithelial cells; type: cell-based; conditions: for inhibition of attachment of aerobic skin bacteria to differentiated HE cells (in words) / inhibition at 17000 µg/mL: 17 mg/ml final concentration; for inhibition at 17000 µg/mL: Homo sapiens, Epithelial cell
[3] = tested on: small colony diphtheroids; conditions: human stratum corneum blended in physiological saline; U.S. Patent No. 4,518,517; cited from earlier work

SMILES | effect on diphtheroid bacterial attachment to the skin sample (in words) [3] | also measured
C[C@@H](O)[C@H](O)[C@H](O)[C@@H](O)C=O [fucose, D(+) fucose] | – | inhibition of attachment of aerobic skin bacteria to undifferentiated HE cells (in words) [1]: consistently able to inhibit attachment; inhibition of attachment of aerobic skin bacteria to differentiated HE cells (in words) [2]: consistently able to inhibit attachment
C[C@H](O)[C@H](O)[C@@H](O)[C@@H](O)C=O [rhamnose] | a greater amount of bacteria attached to the skin than one treated with mannose | –
O=C(CO)[C@@H](O)[C@H](O)[C@H](O)CO [fructose] | a greater amount of bacteria attached to the skin than one treated with mannose | –
OC[C@H]1O[C@H](O[C@H]2[C@H](O)[C@@H](O)[C@H](O)O[C@@H]2CO)[C@H](O)[C@@H](O)[C@@H]1O [maltose] | a greater amount of bacteria attached to the skin than one treated with mannose | –
OC[C@H]1O[C@@H](O[C@H]2[C@H](O)[C@@H](O)C(O)O[C@@H]2CO)[C@H](O)[C@@H](O)[C@H]1O (stereo partly drawn) [lactose] | a greater amount of bacteria attached to the skin than one treated with mannose | –
O=C[C@H](O)[C@@H](O)[C@@H](O)[C@H](O)CO [galactose, D(+) galactose] | neither galactose nor N-acetyl glucosamine had an effect | inhibition of attachment to differentiated epithelial cells (in words) [2]: poor capacity to inhibit attachment; inhibition at 17000 µg/mL [2]: 70 to 90%
OC[C@H]1O[C@@](CO)(O[C@H]2O[C@H](CO)[C@@H](O)[C@H](O)[C@H]2O)[C@@H](O)[C@@H]1O [Sucrose, sucrose, reference compound] | a greater amount of bacteria attached to the skin than one treated with mannose | inhibition at 17000 µg/mL [2]: -12.8 to 22.6%
OC[C@H]1O[C@H](OC[C@H]2O[C@H](O[C@]3(CO)O[C@H](CO)[C@@H](O)[C@@H]3O)[C@H](O)[C@@H](O)[C@@H]2O)[C@H](O)[C@@H](O)[C@H]1O [raffinose] | a greater amount of bacteria attached to the skin than one treated with mannose | –
CC(=O)N[C@H]1C(O)O[C@H](CO)[C@@H](O)[C@@H]1O (stereo partly drawn) [NAGA, N-acetyl-D-glucosamine] | neither galactose nor N-acetyl glucosamine had an effect | inhibition of attachment of aerobic skin bacteria to undifferentiated HE cells (in words) [1]: consistently able to inhibit attachment; inhibition of attachment of aerobic skin bacteria to differentiated HE cells (in words) [2]: consistently able to inhibit attachment
